What was measured:
[1] = system: Monkey Ang-2FD-hFc binding to hTie-2-mFc; assay: ELISA blocking of monkey Ang-2FD-hFc binding to hTie-2-mFc; type: biochemical; conditions: 16.67 nM antibody; 2 nM Ang-2FD-hFc
Procedure: Tie-2 is a natural receptor for Ang-2. Anti-Ang-2 antibodies were tested for their ability to block Ang-2 binding to human Tie-2 (hTie-2). hTie-2-mFc (a chimeric construct consisting of human Tie-2 conjugated to mouse IgG; SEQ ID NO:525) was coated onto 96-well plates at a concentration of 2 μg/ml and incubated overnight followed by washing four times in wash buffer (PBS with 0.05% Tween-20). The plate was then blocked with PBS (Irvine Scientific, Santa Ana, Calif.) containing 0.5% BSA (Sigma-Aldrich Corp., St. Louis, Mo.) for one hour at room temperature. In a separate plate, purified anti-Ang-2 antibodies, at a starting concentration of 50 nM, were serially diluted by a factor of three across the plate. Human, mouse or monkey Ang-2FD protein conjugated to human IgG (Ang-2FD-hFc) were added to final concentrations of 2 nM, 8 nM, or 2 nM respectively and incubated for one hour at room temperature. The antibody/Ang-2FD-Fc mixture was then added to the plate containing hTie-2-mFc and incubated for one hour at room temperature. Detection of Ang-2FD-hFc bound to hTie-2-mFc protein was determined with Horse-Radish Peroxidase (HRP) conjugated to a-human IgG antibody (Jackson Immuno Research Lab, West Grove, Pa.) and developed by standard colorimetric response using tetramethylbenzidine (TMB) substrate (BD Biosciences, San Jose, Calif.). Absorbance was read at OD450 for 0.1 sec.

[2] = system: Ang-1-mediated Tie-2 phosphorylation in EA.hy926 cells; assay: Inhibition of Ang-1-mediated Tie-2 phosphorylation in EA.hy926 cells; type: cell-based, human; conditions: up to 400 nM
Procedure: EA.hy926 cells (Edgell et al., Proc. Natl. Acad. Sci. USA 80:3734-3737 (1983)) were plated at 5×10^6 cells per 10 cm dish in 10 ml DMEM with 10% FBS, HAT, L-glutamine and penicillin/streptomycin. After 24 hours, cells were serum-starved for 1 hour in 10 ml DMEM+1 mg/ml BSA. Cells were then stimulated for 10 minutes with 500 ng/ml of recombinant human Ang-1 (R&D Systems) in the presence of either an irrelevant isotype control antibody (“9E10”) at 400 nM or the anti-Ang-2 antibody H1H685P, or control agents (Control I, Control II, Control IV, or Control V) at concentrations ranging from 10 to 400 nM.
Following incubation, cells were lysed and Tie-2 was immunoprecipitated as described by Daly et al., Proc. Natl. Acad. Sci. USA 103:15491-15496 (2006). Immune complexes were collected by incubation with protein A/G beads (Santa Cruz Biotechnology, Santa Cruz, Calif.) for 60 min. Beads were washed with cold lysis buffer and bound proteins were eluted by heating in SDS sample buffer. Samples were then subjected to Western blot analysis with monoclonal antibodies against Tie-2 or phosphotyrosine (clone 4G10, Millipore, Billerica, Mass.).
Signals were detected using HRP-conjugated secondary antibodies and ECL reagents (GE Healthcare, Piscataway, N.J.). X-ray films were scanned and the phospho-Tie-2 and Tie-2 signals were quantified using ImageJ software. […]

hAng-2FD-mFc F-469-L = target: T1, hAng-2FD-mFc F-469-L (Homo sapiens, UniProt O15123, F469L); assay: Ang-2FD-mFc point mutant binding experiment (SPR), F-469-L; conditions: F-469-L mutant captured; antibody/peptibody at 100 nM; 25° C.
T1 construct: made in house
T1 sequence (O15123 with tags, fused parts or gaps F469L): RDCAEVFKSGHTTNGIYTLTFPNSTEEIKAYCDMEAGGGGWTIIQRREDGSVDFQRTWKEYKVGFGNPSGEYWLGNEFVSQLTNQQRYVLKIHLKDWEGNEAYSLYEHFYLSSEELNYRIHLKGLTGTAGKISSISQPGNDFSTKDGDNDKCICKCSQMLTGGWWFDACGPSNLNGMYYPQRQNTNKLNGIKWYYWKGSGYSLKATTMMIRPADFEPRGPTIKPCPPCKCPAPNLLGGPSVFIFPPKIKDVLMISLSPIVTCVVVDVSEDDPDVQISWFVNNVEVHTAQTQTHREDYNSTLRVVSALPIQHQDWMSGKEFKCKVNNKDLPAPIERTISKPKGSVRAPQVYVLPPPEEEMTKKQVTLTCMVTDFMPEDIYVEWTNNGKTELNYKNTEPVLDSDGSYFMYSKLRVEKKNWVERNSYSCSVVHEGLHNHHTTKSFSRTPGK
Source text: To further characterize binding between hAng2 and anti-hAng2 mAbs of the invention, seven variant hAng2-FD-mFc proteins were generated, each containing a single point mutation. Amino acids selected for mutation were based on the difference in sequence between hAng-2 and hAng-1 in the region that interacts with hTie-2 (FIG. 1). In particular, amino acids within the fibrinogen-like domain (FD) of Ang-2 which are believed to interact with Tie-2 based on crystal structure analysis, but which differ from the corresponding amino acid in Ang-1, were individually mutated to the corresponding hAng-1 residue. The results of this example indicate the amino acid residues of hAng-2 with which the Ang-2 preferential binding antibodies interact.
In this experiment, each of the seven hAng-2FD-mFc mutant proteins were captured (˜147-283 RU) on an anti-mouse-Fc surface created through direct chemical coupling to a BIACORE™ chip. Then each Ang-2 antibody (or peptibody, as the case may be) at 100 nM was injected over the captured mFc-tagged hAng-2FD protein surface at a flowrate of 50 μl/min for 180 sec, and the dissociation of variant hAng2-FD-mFc and antibody was monitored in real time for 20 min at 25° C.

Chain of Monkey Ang-2FD-hFc binding to hTie-2-mFc (as listed by the source): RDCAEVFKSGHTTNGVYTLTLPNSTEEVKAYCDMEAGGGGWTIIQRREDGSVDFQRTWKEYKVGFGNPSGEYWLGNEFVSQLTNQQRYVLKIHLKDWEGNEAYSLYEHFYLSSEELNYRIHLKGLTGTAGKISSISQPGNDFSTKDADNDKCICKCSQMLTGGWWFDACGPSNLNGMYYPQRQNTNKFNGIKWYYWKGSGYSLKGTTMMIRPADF
Chain of Monkey Ang-2FD-hFc binding to hTie-2-mFc (Q02763 with tags, fused parts or gaps Q346P/T695I partner limits assumed): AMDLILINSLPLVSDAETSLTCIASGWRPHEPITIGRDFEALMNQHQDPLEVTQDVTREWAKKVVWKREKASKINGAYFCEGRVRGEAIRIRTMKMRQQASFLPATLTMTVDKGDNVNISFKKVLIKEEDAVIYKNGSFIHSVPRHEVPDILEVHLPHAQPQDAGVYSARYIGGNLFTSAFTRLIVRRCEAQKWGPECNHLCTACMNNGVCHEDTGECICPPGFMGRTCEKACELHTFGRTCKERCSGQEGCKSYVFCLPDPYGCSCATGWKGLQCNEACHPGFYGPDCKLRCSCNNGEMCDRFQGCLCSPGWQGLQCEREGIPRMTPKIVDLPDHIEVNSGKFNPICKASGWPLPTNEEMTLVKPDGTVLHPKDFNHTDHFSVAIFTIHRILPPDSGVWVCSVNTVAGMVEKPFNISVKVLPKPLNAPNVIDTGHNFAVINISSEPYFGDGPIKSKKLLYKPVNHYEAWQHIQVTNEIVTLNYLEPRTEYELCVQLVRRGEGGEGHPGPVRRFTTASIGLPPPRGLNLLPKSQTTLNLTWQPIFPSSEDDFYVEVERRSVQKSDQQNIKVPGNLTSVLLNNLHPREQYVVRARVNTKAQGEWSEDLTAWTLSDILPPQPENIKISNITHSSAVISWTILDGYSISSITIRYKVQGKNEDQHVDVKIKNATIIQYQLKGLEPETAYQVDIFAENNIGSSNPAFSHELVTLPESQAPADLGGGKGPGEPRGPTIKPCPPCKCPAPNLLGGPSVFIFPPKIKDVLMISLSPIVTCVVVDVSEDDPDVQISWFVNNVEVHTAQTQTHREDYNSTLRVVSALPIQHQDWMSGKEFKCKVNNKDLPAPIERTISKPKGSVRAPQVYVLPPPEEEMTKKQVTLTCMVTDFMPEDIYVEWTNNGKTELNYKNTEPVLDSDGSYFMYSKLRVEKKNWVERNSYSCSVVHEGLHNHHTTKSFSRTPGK

With “H1H685P: human anti-Ang-2 antibody, HCVR/LCVR SEQ ID NOs 18/20; also referred to as mAb1 [Antibody H1H685P]” the “Percent Blocking of Ang-2FD Binding to Tie-2, Monkey Ang-2FD-hFc” value [1] was 62.2%, the “Inhibitory effect on Ang-1-induced Tie-2 phosphorylation (in words)” value [2] was “no significant inhibitory effect” and the Kd (hAng-2FD-mFc F-469-L) was 13.8 nM. For the same substance, the RU (hAng-2FD-mFc F-469-L) was 101.16 RU.

From patent publication US9926369B2, “Methods for treating hepatocellular cancer by administering an anti-Ang-2 antibody” (Regeneron Pharmaceuticals, Inc., priority 2009, dated 2018)
